Data reported in publication PMC7451656, “In vitro and in vivo growth inhibitory activities of cryptolepine hydrate against several Babesia species and Theileria equi” (PLoS Neglected Tropical Diseases, 2020).

Columns and labels:
[1] = tested on: mouse embryonic fibroblast (NIH/3T3) cell line; assay: cells; assay type: cell-based; conditions: for EC50: Mus musculus, NIH3T3, cell viability, NIH/3T3, 24 h, CCK-8
Experimental: (§1) Madin–Darby bovine kidney (MDBK) (ECACC), mouse embryonic fibroblast (NIH/3T3 ATCC CRL-1658) and Human foreskin fibroblast (HFF HFF-1 ATCC SCRC-1041) cell lines were recovered from -80°C stock and cultured continuously in our laboratory at 37°C in a humidified incubator with 5% CO2. In 75 cm^2 culture flasks, NIH/3T3 and HFF cell lines were maintained with Dulbecco’s Modified Eagle’s Medium (DMEM; Gibco, Grand Island, NY, USA), while the MDBK cell line was maintained with Minimum Essential Medium Eagle (MEM; Gibco). Ten percent fetal bovine serum, 1% glutamine, and 0.5% penicillin/streptomycin (Gibco) were added to all media and the cells were stained with 4, 6-diamidino-2-phenylindole dihydrochloride (DAPI; Sigma-Aldrich, St. Louis, MO, USA) to ensure that they were free from mycoplasma contamination. Afterward, the cells were washing twice with Dulbecco’s phosphate-buffered saline and TrypLE Express (Gibco) was used for cell detachment from the culture flask. Finally, Neubauer improved C-Chip (NanoEntek Inc., Seoul, Korea) was used for counting the viable cells after staining with 0.4% trypan blue solution.
(§2) The cytotoxicity assay was performed in accordance with the previously described protocol. Briefly, the assay was carried out using 96-well plates at 37 °C in a humidified incubator with 5% CO2, 100 μl of cells at a density of 5 x 10^4 cells/ml was seeded per well and allowed to attach to the plate for 24 h. Ten microliters of twofold drug dilutions was added to each well to a final concentration of 0.781 to 100 μM in triplicate and incubated for another 24 h. Ten μl of Cell Counting Kits-8 (CCK-8; Dojindo, Japan) was added to each well and incubated for another 3 h, and the absorbance was measured at 450 nm using a microplate reader.

[2] = tested on: human foreskin fibroblast (HFF) cell line; assay: cells; assay type: cell-based; conditions: for EC50: Homo sapiens, cell viability, HFF, 24 h, CCK-8
Experimental: as §1, §2

[3] = tested on: Madin–Darby bovine kidney (MDBK) cell line; assay: cells; assay type: cell-based; conditions: for EC50: Bos taurus, MDBK, 24 h, cell viability, CCK-8
Experimental: as §1, §2

[4] = tested on: B. microti small-subunit rRNA (ss-rRNA) gene; assay: Nested PCR detection of B. microti DNA in blood of treated mice; assay type: in vivo, Babesia microti
Experimental: The promising effect of CRY in vitro encouraged us to evaluate its in vivo effects against B. microti in mice. The assay was conducted in accordance with the previously described protocol. In two separate trials, 35 female 8-week-old BALB/c mice, housed under a pathogen-free environment with controlled humidity, temperature (22°C) and a 12 h light/ dark cycle were caged in seven groups, each group consisting of five mice. Six groups were i.p. injected with 0.5 ml of inoculum (1×10^7 B. microti iRBCs), while the seventh group was left uninfected and untreated to act as a negative control. When the average parasitemia in all infected mice reached approximately 1%, the 5-day drug treatment was initiated. The first and second groups were i.p. injected with 25 mg/kg body weight (BW) of DA and 5 mg/kg BW of CRY, respectively. The third group received 20 mg/kg BW of AQ orally, while the fourth and fifth groups were administered a combination of 2.5 mg/kg BW CRY + 12.5 mg/kg BW DA and 2.5 mg/kg BW CRY + 10 mg/kg AQ via a route similar to that of the single-drug treatment, respectively. The sixth group received 5% DMSO in physiological saline i.p. as a positive control. Parasitemia and hematology profiles (RBCs, hemoglobin (HGB), and HCT) were monitored every 2 and 4 days by microscopic examination and hematology analyzer (Celltac α MEK-6450, Nihon Kohden Corporation, Tokyo, Japan), respectively. On day 49, all mice were euthanized using an anesthesia system containing isoflurane and the blood was collected by cardiac puncture for PCR detection of the parasites.
The nested PCR (nPCR) that targeted the B. microti small-subunit rRNA (ss-rRNA) gene was performed in accordance with the previously described protocol and the genomic DNA was extracted from blood samples collected from all mice groups on day 49 post-infection (p.i.) using a QIAamp DNA Blood Mini Kit (Qiagen, Tokyo, Japan). PCR cycling conditions were performed as previously described and the bands with an expected size of 154 bp were considered positive.

What does the source list for O=C1C(O)=C([C@H]2CC[C@H](c3ccc(Cl)cc3)CC2)C(=O)c2ccccc21 [AQ, atovaquone]?
inhibition of cell line at 100 μM [1]: did not show any inhibition; EC50 [1]: > 100 µM; inhibition of cell line at 100 μM [2]: did not show any inhibition; EC50 [2]: > 100 µM; inhibition of cell line at 100 μM [3]: did not show any inhibition; EC50 [3]: > 100 µM; parasite DNA in blood (nPCR) ([4]; day 49, 20 mg/kg AQ): not detected

What does the source list for Cn1c2c3ccccc3nc-2cc2ccccc21 [CRY, Cryptolepine hydrate]?
EC50 [1]: 95.3 ± 2.7 µM; inhibition of cell line at 100 μM [2]: did not show any inhibition; EC50 [2]: > 100 µM; EC50 [3]: 86.7 ± 4.43 µM; parasite DNA in blood (nPCR) ([4]; day 49, 5 mg/kg CRY): still detected
